{"source": "paper PMC6222558", "about": "“Synthesis and Evolution of Berberine Derivatives as a New Class of Antiviral Agents against Enterovirus 71 through the MEK/ERK Pathway and Autophagy” (Molecules : A Journal of Synthetic Chemistry and Natural …, 2018)", "key": {"[1]": {"tested_on": "four different genotype enterovirus 71 (EV71) strains", "experiment": "CPE assay, summary over the four EV71 strains", "type": "cell-based", "conditions": "Enterovirus A, EV71, read-out: IC50 values against all tested EV71 strains", "protocol": "Thus, all newly synthesized BBR analogues were screened for their anti-EV71 potencies in African green monkey kidney (Vero) cells taking BBR as the positive control. EV71 strains used in the present study include different genotype strains, such as H strain (VR-1432, genotype C2), BrCr strain (VR-1775, genotype A), and JS-52 and SHZH98 (genotype C4). The potency against EV71 strains above mentioned of each tested compound was evaluated by the combination of its IC50 and selectivity index (SI) value as the important therapeutic indication.\n(§1) The anti-EV71 activities of all tested compounds were detected by the virus-induced CPE assay. Briefly, cells (3 × 10^4 cells/well) were plated into 96-well culture plates and incubated for 16 h. Then, remove the medium and infected cells with EV71 of 100 × TCID50 (50% tissue culture infective doses) in serum-free medium for 1 h at 37 °C. After that, the unbound viruses were removed and various concentrations of tested compounds were supplemented for incubation of another 72 h. […] TC50 defined as the concentration that leads to the 50% of CPE which determined by the same method in 72 h. In addition, the cells were stained the cells were colored with 0.5% crystal violet in 20% ethanol for 15 min at room temperature and the cells were imaged after rinsed with PBS."}, "[2]": {"tested_on": "EV71-induced autophagy (AKT, JNK, PI3KIII, LC3II, Beclin-1)", "experiment": "Western blot of autophagy proteins in EV71-infected Vero cells", "type": "cell-based, African green monkey", "conditions": "EV71 H, MOI = 0.1; 24 h treatment", "excerpt": "EV71 infection triggers autophagy, which provides a support for EV71 replication. Both JNK and PI3KIII proteins as upstream activators, play important roles in regulating autophagy, and inhibition of corresponding signaling pathway could down-regulate autophagy. Otherwise, AKT, as an inhibitor of autophagy factor, could inhibit autophagy with its activation. To further understand whether 2d still affected autophagy after structure modification, the inhibition of activation AKT and phosphorylation of JNK and PI3KIII proteins were also carried out using BBR as a reference.\n(§2) Cells were lysed in the M-PER mammalian protein extraction reagent (Thermo, Rockford, IL, USA) containing halt protease inhibitor single-use cocktail (Thermo). The protein concentration was determined by BCA Protein Assay Kit (Thermo). Equal amount of samples (15 μg proteins) were denatured and applied to sodium dodecyl sulfate-polyacrylamide gel electrophoresis (SDS-PAGE), and then electrophoresis products were transferred to a polyvinylidenefluoride (PVDF) film and blocked by 5% (w/v) milk or BSA at room temperature. An hour later, PVDF membranes were incubated at room temperature with specific primary antibody. After a standard washing, membranes were incubated with horse radish peroxidase (HRP)-labeled secondary antibody. The signals were detected using ECL detection kit (GE Healthcare Life Sciences, Pittsburgh, PA, USA). The primary antibodies used in the experiment included β-actin, p-p44/p42 MAPK, p44/p42 MAPK, p-MEK, MEK, p-JNK, JNK, p-AKT, AKT, PI3KIII, LC3B, Beclin-1 (Cell Signaling Technology, Danvers, MA, USA), and EV71-VP1 (Abnova, Taibei, China). HRP-labeled secondary antibodies included goat anti-rabbit and anti-mouse HRP-labeled antibodies (Cell Signaling Technology).\nFigure 4 Compound 2d inhibits EV71-induced autophagy. Vero cells were mock-infected or infected with EV71 (H, MOI = 0.1) for 1 h. The cells were then treated with compound 2d and BBR for 24 h. The cells were harvested and proteins were examined by western blot."}, "[3]": {"tested_on": "EV71 VP1 protein", "experiment": "EV71 VP1 protein by western blot in infected Vero cells", "type": "cell-based, enterovirus 71 (EV71)", "conditions": "Vero cells infected with H strain; better than BBR at 40 μM", "protocol": "To further confirm the anti-EV71 activity, the VP1 down-regulatory activity of 2d was examined in Vero cells infected with H strain of EV71, in comparison with that of BBR. […] Accordingly, VP1 capsid protein expression was also analyzed to examine its effect on EV71 biological synthesis.\nas §2, with “HRP-labeled secondary antibodies included goat anti-rabbit and anti-mouse HRP-labeled antibodies (Cell Signaling Technology).” left out"}, "[4]": {"tested_on": "EV71 JS-52 strain (genotype C4)", "experiment": "CPE inhibition assay for anti-EV71, JS-52 strain", "type": "cell-based, enterovirus 71 (EV71)", "conditions": "Enterovirus A, EV71; Vero cells; CPE; calculated on the organic part; n = 3; read-out: JS-52 Strain IC50", "outline": "(§3)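 Vero cells infected with 100 × TCID50 EV71 for 1 h at 37 °C in serum-free medium, unbound virus removed, then compounds added for 72 h. IC50 from inhibition of virus-induced CPE; TC50 as concentration giving 50% CPE at 72 h, with selectivity index; crystal violet staining for imaging.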"}, "[5]": {"tested_on": "EV71 SHZH98 strain (genotype C4)", "experiment": "CPE inhibition assay for anti-EV71, SHZH98 strain", "type": "cell-based, enterovirus 71 (EV71)", "conditions": "Enterovirus A, EV71; Vero cells; CPE; calculated on the organic part; n = 3; read-out: SHZH98 Strain IC50", "outline": "as §3"}, "[6]": {"tested_on": "EV71-induced CPE", "experiment": "CPE assay with microscopy and crystal violet staining", "type": "cell-based, enterovirus 71 (EV71)", "conditions": "20 μM; Vero cells; better than that of BBR", "protocol": "Furthermore, microscopy and crystal violet staining was used to further investigation the anti-EV71 effect of 2d with CPE (cytopathic effect) assay.\nas §1\nFigure 2 The anti-EV71 effect of compound 2d in Vero cells with BBR as a positive control. (A) 2d reduced the EV71-induced CPE. Cells were examined using a microscopy (×40); (B) 2d reduced the EV71-induced CPE. Cells were examined using crystal violet staining; (C) 2d reduced the expression of EV71 VP1 RNA by one-step qRT-PCR assay. ** p < 0.001 * p < 0.05; (D) 2d reduced the expression of EV71 VP1 protein by western blot assay."}, "[7]": {"tested_on": "Vero cells", "experiment": "Cytotoxicity assay (CCK) in Vero cells", "type": "cell-based, African green monkey", "outline": "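Vero cells seeded at 3 × 10^4 cells/well were exposed overnight-plated to a range of compound concentrations in duplicate for 48 h. Viability was measured by CCK at 450 nm. TC50 is the concentration giving 50% growth inhibition versus controls, calculated by the Reed and Muench method.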"}}}
{"smiles": "COc1ccc2cc3[n+](cc2c1OCC(=O)OCc1ccccc1)CCc1cc2c(cc1-3)OCO2", "note": "[2d, 2,3-Methylenedioxy-9-benzyloxyformylmethylenoxy-10-methoxyprotoberberine chloride]", "values": [{"measurement": "IC50", "setting": "[1]", "value": "7.12 to 14.8", "unit": "µM"}, {"measurement": "AKT activation", "setting": "[2]", "value": "activate AKT"}, {"measurement": "LC3II (marker for autophagy)", "setting": "[2]", "value": "decreased"}, {"measurement": "expression of Beclin-1", "setting": "[2]", "value": "could not affect the expression of Beclin-1"}, {"measurement": "phosphorylation of JNK and PI3KIII proteins", "setting": "[2]", "value": "inhibit the phosphorylation of JNK and PI3KIII proteins"}, {"measurement": "VP1 protein expression", "setting": "[3]", "value": "obviously down-regulate the expression of VP1 protein in a dose-dependent manner"}, {"measurement": "IC50", "setting": "[4]", "value": 7.12, "unit": "µM"}, {"measurement": "IC50", "setting": "[5]", "value": 14.8, "unit": "µM"}, {"measurement": "reduction of EV71-induced CPE", "setting": "[6]", "value": "significantly reduce the EV71-induced CPE"}, {"measurement": "cytotoxicity, in words", "setting": "[7]", "value": "lower cytotoxicity"}, {"measurement": "TC50 (median toxic concentration)", "setting": "[7]; African green monkey, 48 h", "value": 82.8, "unit": "µM"}]}
